PMC5639367, “Structure‐Guided Design of Peptides as Tools to Probe the Protein–Protein Interaction between Cullin‐2 and Elongin BC Substrate Adaptor in Cullin RING E3 Ubiquitin Ligases” (Chemmedchem, 2017)
Like-named read-outs stand apart in the source and are kept apart here. Square brackets hold non-standard residues; d marks the D form. Ends that are not written are not given here. Peptide text beside a SMILES is read from it. Chg = N[C@H](C(=O)O)C1CCCCC1; Pen = CC(C)(S)[C@H](N)C(=O)O; Phg = N[C@H](C(=O)O)c1ccccc1; Tle = CC(C)(C)[C@H](N)C(=O)O; Nva = CCC[C@H](N)C(=O)O

Experiments:
VBC = biological target: T1, VBC (Homo sapiens, UniProt P40337+Q15369+Q15370); assay: Biolayer interferometry (BLI) binding of peptides to immobilised VBC
T1 construct: made in house; host or cells: E. coli BL21(DE3)
Method: Biolayer interferometry: BLI experiments were performed in an Octet RED384 (FòrteBio). Biotinylated VBC (25 μg mL^−1) was immobilized on Super Streptavidin‐coated biosensor (FòrteBio). The experiments were conducted at 25 °C, in 20 mM HEPES pH 7.6, 100 mM NaCl, 1 mM DTT and 0.02 % (v/v) Tween‐20 buffer. The response of the reference tips was subtracted from the signal to account for unspecific binding. The data points were fitted using a 1:1 model. […]
peptides. Biotinylated VBC was immobilised on the tips and the peptides were tested in a concentration range from 27 µM to 7 mM. The different colours represent the different concentrations and corresponding responses. The assay was performed […]
Figure S2 – Biolayer interferomery experiments with the alanine scan peptides.
Biotinylated VBC was immobilised on the tips and the peptides were tested in a concentration range from 27 µM to 7 mM. The different colours represent the different concentrations and corresponding responses. The assay was performed in […]
leucine replacement versus VBC tested on a concentration-dependent assay. […]

[1] = biological target: T2, native interaction between VBC and Cul2 (Homo sapiens, UniProt P40337+Q15369+Q15370); assay: AlphaLISA competition assay to displace Cul2 from VBC; type: binding; conditions: V6×HisBC 500 nM, biotinylated Rbx1-Cul2 150 nM
T2 construct: made in house; host or cells: E. coli BL21(DE3) for VBC
Method: AlphaLISA: Anti‐His6 acceptor beads and Streptavidin donor beads (PerkinElmer) were used. […] The final volume of each well was 20 μL. The plate was then read in a PHERAstar FS (BMG LABTECH). Each of the competitors was titrated in quadruplicate. The fitting and IC50 determination were performed in GraphPad Prism 7 (GraphPad Software, La Jolla, CA, USA).

[2] = Precipitation of peptides in the conditions of the BLI experiment; type: physicochemical; conditions: 20 mM HEPES pH 7.6, 100 mM NaCl, 1 mM DTT, 0.02 % Tween-20, 25 °C; visual
Method: Based on the structural analysis of the Cul2‐VBC interface, we first aimed to recapitulate the interaction using N‐terminal Cul2 peptides varying from three to eleven residues. […] Thus, the next step was to enhance the binding affinity of the peptides toward VBC.
Biolayer interferometry: BLI experiments were performed in an Octet RED384 (FòrteBio). Biotinylated VBC (25 μg mL^−1) was immobilized on Super Streptavidin‐coated biosensor (FòrteBio). The experiments were conducted at 25 °C, in 20 mM HEPES pH 7.6, 100 mM NaCl, 1 mM DTT and 0.02 % (v/v) Tween‐20 buffer. The response of the reference tips was subtracted from the signal to account for unspecific binding. The data points were fitted using a 1:1 model.

[3] = 8-mer peptide variants replacing Leu3, BLI, biotinylated VBC on Super Streptavidin biosensor, peptides 27 µM to 7 mM, 20 mM HEPES pH 7.6, 100 mM NaCl, 1 mM DTT, 0.02% Tween-20, 25 °C, 1:1 model, read-out: K d

CSCC[C@H](N)C(=O)N[C@@H](CO)C(=O)N[C@H](C(=O)N[C@@H](CCCCN)C(=O)N1CCC[C@H]1C(=O)N[C@@H](CCCNC(=N)N)C(=O)N[C@H](C(=O)N[C@H](C(N)=O)C(C)C)C(C)C)C(C)(C)C [G] (H-MS[Tle]KPRVV-NH2)
Kd (VBC; [3]): 900 ± 100 µM

CCC[C@H](NC(=O)[C@H](CO)NC(=O)[C@@H](N)CCSC)C(=O)N[C@@H](CCCCN)C(=O)N1CCC[C@H]1C(=O)N[C@@H](CCCNC(=N)N)C(=O)N[C@H](C(=O)N[C@H](C(N)=O)C(C)C)C(C)C [F] (H-MS[Nva]KPRVV-NH2)
Kd (VBC; [3]): 1900 ± 200 µM

CSCC[C@H](N)C(=O)N[C@@H](CO)C(=O)N[C@H](C(=O)N[C@@H](CCCCN)C(=O)N1CCC[C@H]1C(=O)N[C@@H](CCCNC(=N)N)C(=O)N[C@H](C(=O)N[C@H](C(N)=O)C(C)C)C(C)C)C(C)(C)S [Peptide J] (H-MS[Pen]KPRVV-NH2)
Displacement of Cul2 from VBC in AlphaLISA (in words) [1]: displace Cul2

MSLKPRVVD [9‐mer]
Precipitation in the conditions of the BLI experiment (in words) [2]: formed a white precipitate

MSFKPRVV-NH2 [C]
Kd (VBC; [3]): 3100 ± 200 µM

CSCC[C@H](N)C(=O)N[C@@H](CO)C(=O)N[C@H](C(=O)N[C@@H](CCCCN)C(=O)N1CCC[C@H]1C(=O)N[C@@H](CCCNC(=N)N)C(=O)N[C@H](C(=O)N[C@H](C(N)=O)C(C)C)C(C)C)C1CCCCC1 [I] (H-MS[Chg]KPRVV-NH2)
Kd (VBC; [3]): 8900 ± 700 µM

MSLKPRAV-NH2
Kd (VBC): 2100 ± 600 µM

MSLKPRVVDFD [11‐mer]
Precipitation in the conditions of the BLI experiment (in words) [2]: formed a white precipitate

CSCC[C@H](N)C(=O)N[C@@H](CO)C(=O)N[C@H](C(=O)N[C@@H](CCCCN)C(=O)N1CCC[C@H]1C(=O)N[C@@H](CCCNC(=N)N)C(=O)N[C@H](C(=O)N[C@H](C(N)=O)C(C)C)C(C)C)c1ccccc1 [H] (H-MS[Phg]KPRVV-NH2)
Kd (VBC; [3]): 2100 ± 600 µM

MSYKPRVV-NH2 [D]
Kd (VBC; [3]): 7400 ± 400 µM
